According to patent US11077090B2, “Compounds and compositions and uses thereof” (Sunovion Pharmaceuticals Inc., priority 2016, dated 2021):

Legend:
Male C57Bl/6J mice = test: Prepulse inhibition of startle (PPI); format: in vivo; set-up: key: −: No change in PPI; +: Significant increase in PPI at one pre-pulse intensity (P < 0.05 vs vehicle); ++: Significant increase in PPI at two pre-pulse intensities (P < 0.05 vs vehicle); +++: Significant increase in PPI at three pre-pulse intensities (P < 0.05 vs vehicle)
Description: The acoustic startle is an unconditioned reflex response to an external auditory stimulus. Prepulse inhibition of startle (PPI) refers to the reduction in the startle response caused by the presentation of a low-intensity auditory stimulus prior to the startle stimulus. The PPI paradigm is used for the study of schizophrenia and antipsychotic action due to the similarities between the results from human and rodent studies. PPI has been used as a tool for the assessment of deficiencies in sensory-motor gating observed in schizophrenia and to screen for potential antipsychotic drugs. Various psychotomimetic drugs, such as phencyclidine (PCP), can disrupt PPI. In mice, antipsychotic drugs such as haloperidol can increase PPI and clozapine can reverse the disruption of PPI induced by PCP.
Male C57Bl/6J mice from Jackson Laboratories were placed in the PPI chambers (Med Associates) for a 5 min session of white noise (70 dB) habituation. After the habituation period, the test session was initiated. The session started with a habituation block of 6 presentations of the startle stimulus alone, followed by 10 PPI blocks, each of which consisted of 6 different types of trials. Trial types were: ‘null’ (no stimuli), ‘startle’ (120 dB), ‘startle plus prepulse’ (4, 8, and 12 dB over background noise, i.e., 74, 78, or 82 dB) and ‘prepulse’ (82 dB). Trial types were presented in a random order within each block. Each trial started with a 50 ms stimulus-free period during which baseline movements were recorded. This was followed by a subsequent 20 ms period during which the prepulse stimulus was presented and responses to the prepulse measured. After a further 100 ms period, the startle stimulus was presented for 40 ms and responses recorded for 100 ms from startle onset. Responses were sampled every ms. The inter-trial interval was variable with an average of 15 s (range from 10 to 20 s). In ‘startle’ trials, the basic auditory startle response was measured. The basic startle response was calculated as the mean startle response of all ‘startle’ trials (i.e., excluding the first habituation block). In ‘startle plus prepulse’ trials, the degree of inhibition of the normal startle was calculated and expressed as a percentage of the basic startle response.
Mice were treated with vehicle or test compound orally by gavage, or haloperidol (1 mg/kg, i.p.), in 10 mL/kg injection volumes, 30 min prior to PPI test. The PPI enclosures were cleaned following each test. An increase in the percent PPI relative to the vehicle condition indicates an antipsychotic drug-like response.

Adult male AJ mice = test: Tail suspension test (TST); format: in vivo; set-up: key: −: No decrease in Mean Total Time Immobile; +: Significant decrease in Mean Total Time Immobile (P < 0.05 vs vehicle)
Description: The tail suspension test (TST) is a rodent screening test for potential (human) antidepressant drugs. It is based on the assumption that an animal will actively try to escape an aversive (stressful) stimulus. If escape is impossible, the animal will eventually stop trying (“give up”). In the TST, a mouse is suspended by the tail so that its body dangles in the air, head downward. Mice initially struggle to face upward and climb to a solid surface. When the animal stops struggling and hangs immobile it is considered to have “given up”. Shorter periods of immobility are characteristic of antidepressant-like activity. Accordingly, longer periods of immobility are considered indicative of a depressive-like state. It has been shown that treatment with an antidepressant drug will decrease the time the animal spends immobile. See generally L. Steru et al., Psychopharmacology (Berl). 1985; 85(3):367-70; B. Thierry et al., Psychopharmacology 1986; 90:284-85.
Adult male AJ mice from Jackson Laboratories received vehicle (sterile water) or test compound orally by gavage, or the positive control desipramine (20 mg/kg, i.p.), in 10 mL/kg injection volumes, 30 min before being subjected to the Tail Suspension Test. In this test, mice are placed in the Tail Suspension chambers (white polyvinylchloride cubicles measuring 33×33×31.75 cm Med Associates, Inc. St. Albans, Vt.) by a piece of transparent (Scotch®) tape attached to the tail, from about the mid-tail, with approximately 2 cm of tape past the end of the tail for 10 min during which the time spent immobile is measured. A reduction in total time immobile relative to the vehicle condition indicates an antidepressant drug-like response.

SMILES | Effect on Pre-Pulse Inhibition (PPI) (Male C57Bl/6J mice; 3 mg/kg PO) | Effect on Pre-Pulse Inhibition (PPI) (Male C57Bl/6J mice; 10 mg/kg PO) | Effect on Pre-Pulse Inhibition (PPI) (Male C57Bl/6J mice; 30 mg/kg PO) | Mean Total Time Immobile (Adult male AJ mice; 3 mg/kg PO) | Mean Total Time Immobile (Adult male AJ mice; 10 mg/kg PO) | Mean Total Time Immobile (Adult male AJ mice; 30 mg/kg PO)
N[C@@H]1COCc2ccccc21 (single isomer, unassigned) [Example 111] | − | − | +++ | − | − | −
N[C@H]1COCc2ccc(F)cc21 (single isomer, unassigned) [Example 114] |  | − | − |  | − | +
N[C@@H]1COCc2ccc3ccccc3c21 (single isomer, unassigned) [Example 117] |  | − | +++ |  | + | −
N[C@H]1COCc2ccc3ccccc3c21 (single isomer, unassigned) [Example 118] |  | − | − |  | − | −
Cc1ccc2c(c1)[C@H](N)COC2 [Example 123] |  | − | − |  | − | −
Cc1ccc2c(c1)[C@@H](N)COC2 [Example 124] |  | − | − |  | − | −
